From patent US9227995B2, “Peptides” (DRUG DISCOVERY LABORATORY AS, priority 2010, dated 2016)

Test: aqueous solubility of the peptide
Format: physicochemical
Conditions: water; stated as significantly higher compared to acyclic 21

solubility: > 1000 µM
SMILES: COC(=O)C(C)(C)NC(=O)[C@@H]1COCc2cn(nn2)CCC[C@H](NC(=O)C(C)(C)NC(=O)C(C)(C)NC(=O)C(C)(C)NC(=O)OC(C)(C)C)C(=O)NC(C)(C)C(=O)NC(C)(C)C(=O)N1 [compound 23, Methyl 2-methyl-2-((5S,14S)-8,8,11,11-tetramethyl-5-(2,2,6,6,9,9,12,12-octamethyl-4,7,10-trioxo-3-oxa-5,8,11-triazamidecanamido)-6,9,12-trioxo-16-oxa-1,7,10,13,19,20-hexaazabicyclo[16.2.1]henicosa-18 (21),19-dienecarboxamido)propanoate]
